Experimental data: patent US20250354115A1, “METHOD FOR PRODUCING STEM CELLS AND METHOD FOR PRODUCING GAMMA DELTA T CELLS” (I Peace, Inc., priority 2022, published 2025)

What was measured:
γδ T cell receptor (TCR) = test: Stimulation of iPS-derived T cell progenitors through the γδ T cell receptor, flow cytometry (Example 5); type: cell-based, human; settings: day 35; HMBPP 0.01 μg/mL to 1 μg/mL or zoledronic acid 5 μmol/L; no marker expression without stimulants; FIG. 11
Procedure: αMEM medium supplemented with a final concentration of 20% FBS and 1% penicillin/streptomycin was prepared as an OP9 cell culture medium.
OP9 cell culture medium supplemented with a final concentration of 100 mmol/L vitamin C, 10 ng/ML IL-7, 10 μg/mL FLT3 ligand, and 10 μg/mL stem cell factor (SCF) was prepared as a differentiation induction medium.
A dish on which OP9 cells were cultured was prepared as the feeder cells. The OP9 cells were cultured in the OP9 medium. Multiple cell clusters of iPS cells were seeded onto the feeder cells, and stem cell medium containing 10 μmol/L Y27632 was added. The cells were cultured for two days. On the second day, the medium was replaced with the OP9 medium supplemented with vitamin C, and the cells were cultured for an additional 12 days. On days 5, 9, and 13, half of the medium was removed from the dish and replaced with fresh OP9 medium supplemented with vitamin C.
During the 14-day culture, the differentiation of iPS cells into hematopoietic progenitor cells was observed. The cells were confirmed to be positive for CD34 and CD43, which are markers of hematopoietic cells. […]
It was confirmed that CD3 and γδ TCR (Vγ9) were expressed on the surface of the cells. […] In the negative control, where no stimulants were added, no marker expression was detected.

[1] = system: Human peripheral blood mononuclear cells; test: iPS cell induction from mononuclear cells in PTA-containing medium (Example 1); type: cell-based; settings: IL-2 added daily
Procedure: A PTA-containing medium according to Example 1 was prepared using RPMI 1640 medium (Gibco) containing […] of tetrakis-pivaloyloxymethyl-2-(thiazol-2-ylamino) ethylidene-1, 1-bisphosphonate (PTA, Techno Suzuta), 10% fetal bovine serum (Life Technologies), 1.0×10^−5 mol/L 2-mercaptoethanol (Nacalai Tesque), 100 U/mL penicillin, and 100 μg/mL streptomycin (Life Technologies).
Human peripheral blood mononuclear cells were added to the PTA-containing medium according to Example 1, and a medium containing approximately 1×10^6 mononuclear cells was placed into a 24-well plate (Day 1). […] On Day 3, the medium containing cells was collected from the plate, centrifuged, and the supernatant was removed. Then, 2 mL of fresh PTA-containing medium according to Example 1 was added to the cells, and 1 mL of the medium was placed into two wells of a 24-well plate.
On Day 6, the medium containing cells was collected from the plate, centrifuged, and the supernatant was removed. Then, the PTA-containing medium according to Example 1 was added to the cells, and a medium containing 2×10^4 mononuclear cells was placed into a 96-well plate. KLF4, OCT3/4, SOX2, and c-MYC were introduced into the cells using MSRV (Tokiwa Bio). […]
Additionally, genomic DNA was extracted from the iPS cells, and the presence of the recombined Vγ9 gene was analyzed by PCR and electrophoresis. […]

SMILES	CD3 and γδ TCR (Vγ9) expression on the surface of the cells (γδ T cell receptor (TCR))	presence of the recombined Vγ9 gene in the iPS cells by PCR and electrophoresis ([1]; FIG. 3)	colonies of iPS cells on Day 14 ([1]; KLF4, OCT3/4, SOX2, c-MYC introduced using MSRV, MOI 5)
C/C(=C\COP(=O)(O)OP(=O)(O)O)CO [HMBPP, (E)-4-hydroxy-3-methyl-but-2-enyl pyrophosphate]	expressed		
CC(C)(C)C(=O)OCOP(=O)(OCOC(=O)C(C)(C)C)C(CNc1nccs1)P(=O)(OCOC(=O)C(C)(C)C)OCOC(=O)C(C)(C)C [PTA, tetrakis-pivaloyloxymethyl-2-(thiazol-2-ylamino) ethylidene-1,1-bisphosphonate]		confirmed to possess a recombined Vγ9 gene with a JP gene	multiple colonies
